The values below come from patent publication US7488732B2, “2-substituted pyrimidines” (BASF Aktiengesellschaft, priority 2003, dated 2009).

The subject of one assay is Botrytis cinerea. The experiment in a line: Activity against gray mold on capsicum leaves caused by Botrytis cinerea, protective application. Particulars: 250 ppm, protective spray on capsicum seedlings, rated after 5 days; untreated control 90% infection. In kind it is in vivo. The procedure: The active compounds were prepared as a stock solution with 0.25% by weight of active compound in acetone or DMSO. 1% by weight of the emulsifier Uniperol® EL (wetting agent having emulsifying and dispersing action based on ethoxylated alkylphenols) was added to this solution, and the solution was diluted with water to the desired concentration. 2. Activity against gray mold on capsicum leaves caused by Botrytis cinerea, protective application Capsicum seedlings of the cultivar “Neusiedler Ideal Elite” were, after 4-5 leaves had fully developed, sprayed to runoff point with an aqueous suspension of the active compound concentration given below. The next day, the treated plants were inoculated with a spore suspension of Botrytis cinerea comprising 1.7×10^6 spores/ml in a 2% aqueous biomalt solution. The test plants were subsequently placed in a climatized chamber at 22 to 24° C. and high atmospheric humidity. After 5 days, the extent of the fungal infection on the leaves could be determined visually in %.

A further assay deals with Sphaerotheca fuliginea. Briefly: Activity against mildew on cucumber leaves caused by Sphaerotheca fuliginea, protective application. The format is in vivo. Particulars: 250 ppm, protective spray on cucumber seedlings, rated after 7 days; untreated control 90% infection. The procedure:
The active compounds were prepared as a stock solution with 0.25% by weight of active compound in acetone or DMSO. 1% by weight of the emulsifier Uniperol® EL (wetting agent having emulsifying and dispersing action based on ethoxylated alkylphenols) was added to this solution, and the solution was diluted with water to the desired concentration. 3. Activity against mildew on cucumber leaves caused by Sphaerotheca fuliginea, protective application Leaves of potted cucumber seedlings of the cultivar “Chinese snake” were, at the cotyledon stage, sprayed to runoff point with an aqueous suspension of the active compound concentration given below. 20 hours after the spray coating had dried on, the plants were inoculated with an aqueous spore suspension of mildew of cucumber (Sphaerotheca fuliginea). The plants were then cultivated in a greenhouse at temperatures between 20 and 24° C. and 60 to 80% relative atmospheric humidity for 7 days. The extend of the mildew development was then determined visually in % infection of the coltyledon area.

Regarding `CCC(C)Cc1nc(C#N)nc(C)c1-c1c(F)cc(F)cc1F` (centres unmarked) [I-4, 2-Cyano-4-methyl-5-(2,4,6-trifluorophenyl)-6-(2-methylbutyl)pyrimidine], in the assay with Botrytis cinerea, the “infection (gray mold on leaves, determined visually in %)” value is reported as “no infection”. The “infection (mildew, determined visually in % infection of the cotyledon area)” value in the assay on Sphaerotheca fuliginea is listed as “no infection”.
